Columns and labels:
[1] = system: production of TNF-alpha in RAW 264.7 cells; assay: Inhibition of TNF-alpha production in LPS-treated RAW 264.7 cells, ELISA of culture supernatant; type: cell-based, mouse; parameters: TNF-alpha inhibition: scale not given here; conditions: Table 23, LPS 0.3 μg/ml, 24 hours, compounds up to 10 μM, IC50 unit not given
Description: To test the inhibiting activity of the compounds prepared from above Examples on the production of TNF-alpha, the concentration of TNF-alpha in the cell supernatant was measured.
(§1) Each 200 μl of RAW 264.7 cells (ATCC, USA), a mouse macrophage cell line was seeded onto each well of 96-well microtiter plate (Nunc, Sweden) to the concentration ranging from 1×10^6 cells/ml to 5×10^6 cells/ml, and incubated in DMEM (Dulbeco's modified eagles medium) media containing 5% FBS (fetal bovine serum) at 37° C. in 5% CO2 incubator.
(§2) Various concentrations of the compounds of the present invention ranging from […] to 10 μM and LPS (Sigma, USA) in the final concentration of 0.3 μg/ml were treated to activated cell simultaneously. The treated cells were cultured at 37° C. for 24 hours in 5% CO2 incubator and the cultured cells were collected after the cultivation
And then the concentration of TNF-alpha secreted from the culture supernatant of RAW 264.7 cells was determined by ELISA according to the manufacture's instruction (R&D Systems, Minneapolis, Minn.).
The result was shown in Table 23 (AA: IC50's<1, A: IC50's<5, B: IC50's<10, C: IC50's>10).

[2] = system: production of nitric oxide (NO) in RAW 264.7 cells; assay: Inhibition of NO (nitrite) production in LPS-activated RAW 264.7 macrophages, Griess reagent; type: cell-based, mouse; conditions: Table 22, cited in b622 as nitrite/NO production result, LPS 0.3 μg/ml, 24 hours, compounds up to 10 μM, IC50 unit not given
Description: To test the inhibiting activity of the compounds prepared from above Examples 1 to 6 on the production of nitric oxide (NO) caused by activated macrophage by lipopolysaccharide (LPS), the amount of accumulated […] in the cells was determined as an indicator of NO production in the medium.
as §1
as §2, with “μg/ml to activate the cell” for “μg/ml”, “activate the” for “activated”, “cultivation.” for “cultivation”
And then, to the collected cell culture, an equal volume of Griess reagent (1% sulfanilamide, 0.1% naphthylethylenediamine dihydrochloride, and 2% phosphoric acid) was added and the culture was incubated at room temperature for 10 mins. The amount of nitrite production was determined by measuring the absorbance at 540 nm versus a NaNO2 standard curve. […]

SMILES	TNF-alpha inhibition [1]	NO production inhibition [2]
Cc1ccc(CCN2CC=C(CCC(=O)NO)C2=O)cc1 [Example 39, N-hydroxy-3-[2-oxo-1-(2-p-tolyl-ethyl)-2,5-dihydro-1H-pyrrol-3-yl]-propionamide]	AAA	AAA
O=C(CCC1=CCN(CCCc2ccc3ccccc3c2)C1=O)NO [Example 56, N-hydroxy-3-[1-(3-naphthalene-2-yl-propyl)-2-oxo-2,5-dihydro-1H-pyrrol-3-yl]-propionamide]	AAA	AAA
